Reference: patent publication US5928868A, “Three hybrid screening assay” (Massachusetts Institute of Technology, priority 1997, dated 1999)

Key:
[1] = biological target: transcriptional activator-FKBP12 and Lex A DNA Binding Domain-Hormone Binding Domain of the Rat Glucocorticoid Receptor (UniProt P06536+P62942, C656G/F620S); assay: Yeast three hybrid screen, Lex A system (EGY48; lacZ and leu 2 reporters); assay type: cell-based, Saccharomyces cerevisiae (EGY 48); conditions: 2% galactose
Description: A first vector containing the cDNA fragment encoding FKBP 12-transcriptional module was formed as follows. The cDNA encoding FKBP 12 was originally obtained from a human cDNA library prepared according to well known techniques (Current Protocols in Molecular Biology). The cDNA encoding the FKBP12 was amplified by PCR and subcloned into the EcoRI and XhoI sites of the pJG4-5 vector where the pJG4-5 vector already contains the transcriptional activator module. (Current Protocols in Molecular Biology). The resulting vector is called pJGFKBP.
A second vector encoding the hormone binding domain of rat glucocorticoid receptor (FIG. 4) and the Lex A binding protein was made as follows: A clone containing the full length rat glucocorticoid receptor with the C656G mutation was obtained according to Chakrabati et al. Journal of Biological Chemistry, (1991) vol 266, pp22075-22078. A fragment encoding amino acid residues 497-795 of the protein with the F620S mutation was generated by a standard two-step PCR reaction routinely used for the creation of point mutations. This fragment was flanked by restriction sites for MfeI and XhoI, and was subcloned into the EcoRI and XhoI sites of the pEG202 vector (Current Protocols in Molecular Biology) where the pEG202 vector contains the sequence which encodes for a protein which binds the bacterial Lex A operator. The resulting hybrid construct, designated pEGHDP encodes the second hybrid protein in the assay.
A third vector identified as pSH18-34 and containing the lacZ reporter gene downstream of a number of Lex A operators was made following standard techniques. (Current Protocols in Molecular Biology).
Saccharomyces cerevisiae (EGY 48) [Current Protocols on Molecular Biology], was transformed with the three vectors described above using standard lithium acetate transformation procedures. Positive transformants were selected by plating cells on complete minimal media yeast dropout plates containing 2% glucose, and lacking histidine, tryptophan and uracil. The transformed EGY48 yeast were then screened as described below.
(FIG. 6). […] This experiment was also performed on similar plates which were also leu^-. The leu 2 gene is used in EGY48 as a second reporter gene. Only yeast that grow in the absence of leucine contain a trimeric complex. These yeast grew well, with isolated colonies clearly visible at two days. Two control experiments were conducted by plating the transformed EGY48 strain onto complete minimal media Ura^-, His^-, Trp^- yeast dropout plates as in the aforementioned cases except the plates contained 2% glucose instead of 2% galactose. In the absence of galactose, the hybrid transcriptional activator-FKBP12 protein was not expressed since the gene encoding it is under the Gal1 promoter. […]

[2] = test system: FK506 binding proteins (FKBP); conditions: cited from earlier work
[3] = biological target: T1, Gal 4 activation domain-human FKBP12 and Gal4 DNA binding domain-hormone binding domain of rat glucocorticoid receptor (UniProt P06536+P62942, C656G/F620S); conditions: 10 μM FK506 with 1 μM dexamethasone-FK506, 30 mM 3-aminotriazole, three days
T1 sequence (P62942 2-108): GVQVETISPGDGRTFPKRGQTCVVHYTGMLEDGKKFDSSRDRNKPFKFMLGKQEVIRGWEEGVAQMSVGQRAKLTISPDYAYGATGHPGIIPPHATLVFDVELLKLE
T1 sequence (P06536 497-795 F620S/C656G): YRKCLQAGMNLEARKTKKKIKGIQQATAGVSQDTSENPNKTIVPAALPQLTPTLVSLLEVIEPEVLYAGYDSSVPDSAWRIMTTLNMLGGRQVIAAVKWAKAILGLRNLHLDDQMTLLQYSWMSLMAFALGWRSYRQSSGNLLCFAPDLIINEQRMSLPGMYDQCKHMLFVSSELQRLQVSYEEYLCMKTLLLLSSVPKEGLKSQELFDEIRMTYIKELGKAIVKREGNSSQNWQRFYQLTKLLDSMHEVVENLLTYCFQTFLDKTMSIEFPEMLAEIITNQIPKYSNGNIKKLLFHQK
Procedure: A three-hybrid assay using a second Gal4 DNA binding domain and activation domain as described by Fields et al. (U.S. Pat. No. 5,468,614) and by Durfee et al. (1993) Genes and Development vol 7, pg 555-569 was evaluated. The hormone binding domain of rat glucocorticoid receptor (residues 497-795) containing either a single or double mutations (C656G and F620S) was PCR amplified using primers tagged with restriction sites and subcloned into the vector pASII to encode a fusion protein between the Gal4 DNA binding domain and the hormone binding domain of rat glucocorticoid receptor to give a plasmid pASHBD. The coding sequence of human FKBP12 was PCR amplified and subcloned into the vector pACTII to include a fusion protein between Gal 4 activation domain and human FKBP12. The resultant vector is called pACTFKBP. The vectors pASHBD and pACTFKBP were transformed into the yeast strain Y190 using lithium acetate method and the transformed yeast were selected on SC (Leu^-, Trp^-).

[4] = biological target: T1, Gal 4 activation domain-human FKBP12 and Gal4 DNA binding domain-hormone binding domain of rat glucocorticoid receptor; assay type: cell-based, yeast strain Y190; conditions: FK506 1 to 10 μM with 1 μM dexamethasone-FK506, 30° C., 12-16 hours
Procedure: The above yeast system has both a His- biosynthetic gene and a LacZ reporter gene as reporters for detection of three-hybrid interactions. We performed liquid β-galactosidase assay as follows. […] The culture were shaken vigorously at 30° C. for 12-16 hours. The yeast were harvested and the amount of β-galactosidase activity were quantified using established procedure (Current Protocol in Molecular Biology, Chapt. 13). […] This system is applied for screening a cDNA library to identify FKBPs that binds to FK506. The screening procedures are identical to those employed in Example 1.

glucocorticoid receptor = conditions: cited from earlier work
[5] = test system: Jurkat cDNA library subcloned into pJG4-5; conditions: 1 μM dexamethasone-FK506; growth inhibited by 10 μM FK506
Procedure: The yeast strain: EGY48 ura3 trp1 his3 Lex A operator-LEU 2; was transformed with pEGHDP and PSH18-34 and plated onto synthetic complete (SC) medium (His^-, Ura^-). The resultant EGY48 harboring pEGHBD and pSH18-34 was transformed with a Jurkat cDNA library subcloned into pJG4-5. […] Colonies were collected between days four and ten. All colonies were plated onto SC medium (His^-, Ura^-, Trp^-, Leu^-) containing galactose.

Sequence of transcriptional activator-FKBP12 and Lex A DNA Binding Domain-Hormone Binding Domain of the Rat Glucocorticoid Receptor (P62942 2-108): as the sequence (P62942 2-108) above
Sequence of transcriptional activator-FKBP12 and Lex A DNA Binding Domain-Hormone Binding Domain of the Rat Glucocorticoid Receptor (P06536 497-795 F620S/C656G): as the sequence (P06536 497-795 F620S/C656G) above

## C=CC[C@@H]1/C=C(\C)C[C@H](C)C[C@H](OC)[C@H]2O[C@@](O)(C(=O)C(=O)N3CCCC[C@H]3C(=O)O[C@H](/C(C)=C/[C@@H]3CC[C@@H](O)[C@H](OC)C3)[C@H](C)[C@@H](O)CC1=O)[C@H](C)C[C@@H]2OC [FK506]
[1]; 10 μM FK506 with 1 μM dexamethasone-FK506 hybrid ligand
  competitive inhibition of trimeric complex formation / Lac Z activation (yeast color): all of the yeast remained white
[2]; FK506 linked through the effector domain
  binding affinity to FKBPs when linked through the effector domain: low nanomolar binding affinity
[2]; free FK506
  binding affinities for FKBPs: in the nanomolar range
[3]
  yeast colonies on selective plates in competition with hybrid ligand: absent
[4]
  β-galactosidase activity in competition with hybrid ligand: decrease in a FK506 dose-dependent manner

## C[C@@H]1C[C@H]2[C@@H]3CCC4=CC(=O)C=C[C@]4(C)[C@@]3(F)[C@@H](O)C[C@]2(C)[C@@]1(O)C(=O)CO [dexamethasone]
Glucocorticoid receptor
  affinity for the glucocorticoid receptor: high affinity

## dexamethasone-FK506
[1]; 1 μM hybrid ligand, Ura-, His-, Trp- plates with X-Gal
  reporter gene activation (Lac Z, blue color on X-Gal): the yeast were blue at three days
[1]; 1 μM hybrid ligand, X-Gal plates
  time at which light blue color signifying reporter gene activation began to arise: approximately 36 hours
[1]; 1 μM hybrid ligand, leu- plates
  growth in the absence of leucine (leu 2 reporter gene): grew well
[5]
  protein encoded by cDNA clones isolated with the hybrid ligand: found to encode human FKBP12
